Format in all cases: functional, cell-based
For one assay, the system named is HL-60. Kind of assay: Cytotoxicity against human HL60 cells after 48 hrs by MTT assay. The note with it: HL-60, 48 h. In general terms: Tetrazolium dyes change colour on reduction, which living cells bring about.
Assay [1] can be described thus: Cytotoxicity against human PC-3MIE8 cells after 48 hrs by MTT assay. Particulars: PC-3MIE8, 48 h.
A further assay deals with BGC-823. In words: Cytotoxicity against human BGC823 cells after 48 hrs by MTT assay. The note with it: BGC-823, 48 h.
The nature of assay [2]: Cytotoxicity against human […] cells after 48 hrs by MTT assay.
The subject of the next assay is Bel-7402. In words: Cytotoxicity against human Bel7402 cells after 48 hrs by MTT assay. Particulars: Bel-7402, 48 h.
The next assay concerns HeLa. In words: Cytotoxicity against human HeLa cells after 48 hrs by MTT assay.

From ChEMBL document CHEMBL1148972, “Isomalabaricane-type compounds from the marine sponge Rhabdastrella aff. distincta” (J Nat Prod, 2004) come the findings set out here.

≈ marks a conversion by molar mass, not a printed value.

The IC50 is the concentration that gives 50% inhibition. Turning to `CC(=O)/C=C\C(=O)/C(C)=C/C=C/C(C)=C1/C(=O)C[C@H]2[C@@]3(C)CCC(=O)C(C)(C)[C@@H]3CC[C@]12C`, the 50% inhibitory concentration (IC50) (with HL-60; in assay [1]; in the assay on BGC-823; in assay [2]; in the assay with Bel-7402; in the assay with HeLa) was > 5 µg/mL throughout.
As to `CC1=CC[C@@H](/C(C)=C/C=C/C(C)=C2\C(=O)C[C@H]3[C@@]4(C)CCC(=O)C(C)(C)[C@@H]4CC[C@]23C)OC1=O` [22,23-DIHYDROSTELLETTIN B], the IC50 (in the assay on HL-60; in assay [1]; with BGC-823; in assay [2]; in the assay with Bel-7402; in the assay with HeLa) was > 5 µg/mL throughout.
Regarding `COc1cc2c(c(OC)c1OC)-c1ccc(OC)c(=O)cc1[C@@H](NC(C)=O)CC2` [COLCHICINE], the IC50 was determined as 1.6 µg/mL (≈ 4.01 µM) with HL-60; 0.7 µg/mL (≈ 1.75 µM) in assay [1]; 0.6 µg/mL (≈ 1.5 µM) with BGC-823; 0.2 µg/mL (≈ 0.501 µM) in assay [2]; 0.3 µg/mL (≈ 0.751 µM) in the assay with Bel-7402; 0.1 µg/mL (≈ 0.25 µM) in the assay with HeLa.
`CC(=O)/C=C/C(=O)/C(C)=C/C=C/C(C)=C1\C(=O)C[C@H]2[C@@]3(C)CCC(=O)C(C)(C)[C@@H]3CC[C@]12C` [GEODITIN A]: the IC50 (in the assay with HL-60; in assay [1]; with BGC-823; in assay [2]; in the assay on Bel-7402; in the assay on HeLa) was > 5 µg/mL throughout.
`CC(=O)/C=C/C(=O)/C(C)=C/C=C/C(C)=C1\C(=O)C[C@H]2[C@@]3(C)CC[C@H](OC(C)=O)C(C)(C)[C@@H]3CC[C@]12C` [GEODITIN B]: the IC50 (in the assay on HL-60; in assay [1]; in the assay with BGC-823; in assay [2]; with Bel-7402; with HeLa) was > 5 µg/mL throughout.
As to `CC(=O)/C=C\C(=O)/C(C)=C/C=C/C(C)=C1\C(=O)C[C@H]2[C@@]3(C)CCC(=O)C(C)(C)[C@@H]3CC[C@]12C` [ISOGEODITIN A], the IC50 in the assay on HL-60 turned out to be 0.13 µg/mL (≈ 0.288 µM); in assay [1], 0.07 µg/mL (≈ 0.155 µM); in the assay with BGC-823, 0.47 µg/mL (≈ 1.04 µM); in assay [2] it was 1.2 µg/mL (≈ 2.66 µM); in the assay on Bel-7402 it was 3.7 µg/mL (≈ 8.21 µM); in the assay with HeLa, 0.35 µg/mL (≈ 0.777 µM).
Regarding `CC(=O)/C=C\C(=O)/C(C)=C/C=C/C(C)=C1\C(=O)C[C@H]2[C@@]3(C)CC[C@H](OC(C)=O)C(C)(C)[C@@H]3CC[C@]12C` [ISOGEODITIN B], the IC50 with HL-60 stood at 0.5 µg/mL (≈ 1.01 µM); in assay [1] it was 3.4 µg/mL (≈ 6.87 µM); in the assay with BGC-823 it was 2.2 µg/mL (≈ 4.45 µM); in assay [2] it was 2.2 µg/mL (≈ 4.45 µM); in the assay on Bel-7402, 3.9 µg/mL (≈ 7.88 µM); in the assay with HeLa, 3 µg/mL (≈ 6.06 µM).
Turning to `COC(=O)/C(C)=C/C=C/C(C)=C/C=C/C(C)=C1/C(=O)C[C@H]2[C@@]3(C)CCC(=O)C(C)(C)[C@@H]3CC[C@]12C` [RHABDASTRELLIC ACID A METHYL ESTER], the IC50 (in the assay on HL-60; in assay [1]; with BGC-823; in assay [2]; with Bel-7402; in the assay on HeLa) was > 5 µg/mL throughout.
As for `CC(/C=C/C=C(\C)C(=O)O)=C\C=C\C(C)=C1\C(=O)C[C@H]2[C@@]3(C)CCC(=O)C(C)(C)[C@@H]3CC[C@]12C` [RHABDASTRELLIC ACID A], the IC50 (with HL-60; in assay [1]; in the assay on BGC-823; in assay [2]; in the assay with Bel-7402; in the assay on HeLa) was > 5 µg/mL each time.
With `C\C(=C/C=C/C(C)=C1/C(=O)C[C@H]2[C@@]3(C)CCC(=O)C(C)(C)[C@@H]3CC[C@]12C)c1ccc(C)c(=O)o1` [STELLETIN A], the IC50 (with HL-60; in assay [1]; with BGC-823; in assay [2]; in the assay on Bel-7402; with HeLa) was > 5 µg/mL in each case.
Turning to `CC(/C=C/C=C(C)/C=C/C=C(\C)C(=O)O)=C1/C(=O)C[C@H]2[C@@]3(C)CCC(=O)C(C)(C)[C@@H]3CC[C@]12C` [STELLETIN E], the half-maximal inhibitory concentration (IC50) (with HL-60; in assay [1]; in the assay on BGC-823; in assay [2]; in the assay with Bel-7402; in the assay with HeLa) was > 5 µg/mL throughout.
As to `CC(/C=C/C=C(\C)c1ccc(C)c(=O)o1)=C1/C(=O)C[C@H]2[C@@]3(C)CCC(=O)C(C)(C)[C@@H]3CC[C@]12C` [STELLETTIN B], the IC50 is 0.2 µg/mL (≈ 0.432 µM) in the assay on HL-60; > 5 µg/mL in assay [1]; > 5 µg/mL in the assay with BGC-823; > 5 µg/mL in assay [2]; > 5 µg/mL in the assay on Bel-7402; > 5 µg/mL with HeLa.
For `CC(=O)O[C@H]1CC[C@@]2(C)[C@@H](CC[C@]3(C)\C(=C(C)/C=C/C=C(\C)c4ccc(C)c(=O)o4)C(=O)C[C@@H]23)C1(C)C` [STELLETTIN C], the IC50 in the assay with HL-60 was > 5 µg/mL; in assay [1], 3.1 µg/mL (≈ 6.12 µM); in the assay with BGC-823, > 5 µg/mL; in assay [2], > 5 µg/mL; in the assay with Bel-7402 it was > 5 µg/mL; in the assay with HeLa, > 5 µg/mL.
On to `COC(=O)/C(C)=C/C=C/C(C)=C/C=C/C(C)=C1\C(=O)C[C@H]2[C@@]3(C)CCC(=O)C(C)(C)[C@@H]3CC[C@]12C` [STELLETTIN E METHYL ESTER], for which the IC50 in the assay on HL-60 is 4.2 µg/mL (≈ 8.77 µM); in assay [1] it was > 5 µg/mL; in the assay on BGC-823, > 5 µg/mL; in assay [2], > 5 µg/mL; with Bel-7402, > 5 µg/mL; in the assay with HeLa, > 5 µg/mL.
